Data published in US12077503B2, “Substituted cyclic amides and their use as herbicides” (FMC CORPORATION, priority 2015, dated 2024).

Columns and labels:
Assay type in all cases: in vivo
[1] = system: velvetleaf (Abutilon theophrasti); experiment: Test G Pre-Emergence Protocol; conditions: Abutilon theophrasti, pre-emergence, 312 h, evaluated after 13 days; for pest or weed control at 15.625 g/ha: 15.625 g ai/ha; for pest or weed control at 15.625 g/ha / pest or weed control at 250 g/ha: read-out: Velvetleaf damage rating (100=total damage to plant; 0=no damage to plant); for pest or weed control at 62.5 g/ha: 62.5 g ai/ha, 100=total damage to plant, 0=no damage to plant, read-out: plant damage rating, Velvetleaf; for pest or weed control at 250 g/ha: 250 g ai/ha
In short: (§1)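 Test compound in 0.5% Tween 20 acetone/water (50:50) was applied at three rates (15.625, 62.5, 250 g/ha) to soil sown one day earlier. After 13 days plants were scored for injury, where 0 means unaffected and 100 means completely damaged.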

[2] = system: redroot pigweed (Amaranthus retroflexus); experiment: Test G Pre-Emergence Protocol; conditions: Amaranthus retroflexus, pre-emergence, 312 h, evaluated after 13 days; for pest or weed control at 15.625 g/ha: 15.625 g ai/ha; for pest or weed control at 15.625 g/ha / pest or weed control at 250 g/ha: read-out: Pigweed, Redroot damage rating (100=total damage to plant; 0=no damage to plant); for pest or weed control at 62.5 g/ha: 62.5 g ai/ha, 100=total damage to plant, 0=no damage to plant, read-out: plant damage rating, Pigweed, Redroot; for pest or weed control at 250 g/ha: 250 g ai/ha
In short: as §1

corn (Zea mays) [3] = experiment: Test G Pre-Emergence Protocol; conditions: Zea mays, pre-emergence, 312 h, evaluated after 13 days; for plant injury at 15.625 g/ha: 15.625 g ai/ha; for plant injury at 15.625 g/ha / plant injury at 250 g/ha: read-out: Corn damage rating (100=total damage to plant; 0=no damage to plant); for plant injury at 62.5 g/ha: 62.5 g ai/ha, 100=total damage to plant, 0=no damage to plant, read-out: plant damage rating, Corn; for plant injury at 250 g/ha: 250 g ai/ha
In short: as §1

[4] = system: ivy-leaved morning glory (Ipomoea hederacea); experiment: Test G Pre-Emergence Protocol; conditions: Ipomoea, pre-emergence, 312 h, evaluated after 13 days; for pest or weed control at 15.625 g/ha: 15.625 g ai/ha, read-out: Morning-glory, Ivy-leaved damage rating (100=total damage to plant; 0=no damage to plant); for pest or weed control at 62.5 g/ha: 62.5 g ai/ha, 100=total damage to plant, 0=no damage to plant, read-out: plant damage rating, Morningglory, Ivy-leaved; for pest or weed control at 250 g/ha: 250 g ai/ha, read-out: Morningglory, Ivy-leaved damage rating (100=total damage to plant; 0=no damage to plant)
In short: as §1

[5] = system: barnyardgrass (Echinochloa crus-galli); experiment: Test G Pre-Emergence Protocol; conditions: Echinochloa crus-galli, pre-emergence, 312 h, evaluated after 13 days; for pest or weed control at 15.625 g/ha: 15.625 g ai/ha, read-out: Barnyard grass damage rating (100=total damage to plant; 0=no damage to plant); for pest or weed control at 62.5 g/ha: 62.5 g ai/ha, 100=total damage to plant, 0=no damage to plant, read-out: plant damage rating, Barnyardgrass; for pest or weed control at 250 g/ha: 250 g ai/ha, read-out: Barnyardgrass damage rating (100=total damage to plant; 0=no damage to plant)
In short: as §1

[6] = system: giant foxtail (Setaria faberi); experiment: Test G Pre-Emergence Protocol; conditions: Setaria faberi, pre-emergence, 312 h, evaluated after 13 days; for pest or weed control at 15.625 g/ha: 15.625 g ai/ha; for pest or weed control at 15.625 g/ha / pest or weed control at 250 g/ha: read-out: Foxtail, Giant damage rating (100=total damage to plant; 0=no damage to plant); for pest or weed control at 62.5 g/ha: 62.5 g ai/ha, 100=total damage to plant, 0=no damage to plant, read-out: plant damage rating, Foxtail, Giant; for pest or weed control at 250 g/ha: 250 g ai/ha
In short: as §1

[7] = system: velvetleaf (Abutilon theophrasti); experiment: Test G Post-Emergence Protocol; conditions: Abutilon theophrasti, post-emergence, 312 h; for pest or weed control at 15.625 g/ha: 15.625 g ai/ha, evaluated after 13 days (100=total damage to plant; 0=no damage to plant), read-out: Velvetleaf damage rating; for pest or weed control at 62.5 g/ha: 62.5 g ai/ha, read-out: Velvetleaf damage rating (100=total damage to plant; 0=no damage to plant); for pest or weed control at 62.5 g/ha / pest or weed control at 250 g/ha: evaluated after 13 days; for pest or weed control at 250 g/ha: 250 g ai/ha, read-out: damage to plant, Velvetleaf (100=total damage to plant; 0=no damage to plant)
In short: (§2)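 A glasshouse post-emergence test: 8-day-old plants sprayed at 15.625, 62.5 or 250 g/ha, then grown at 24/16 °C day/night with 14 h light and 65% humidity. Damage rated 13 days later, 0–100.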

[8] = system: redroot pigweed (Amaranthus retroflexus); experiment: Test G Post-Emergence Protocol; conditions: Amaranthus retroflexus, post-emergence, 312 h; for pest or weed control at 15.625 g/ha: 15.625 g ai/ha, evaluated after 13 days (100=total damage to plant; 0=no damage to plant), read-out: Pigweed, Redroot damage rating; for pest or weed control at 62.5 g/ha: 62.5 g ai/ha, read-out: Pigweed, Redroot damage rating (100=total damage to plant; 0=no damage to plant); for pest or weed control at 62.5 g/ha / pest or weed control at 250 g/ha: evaluated after 13 days; for pest or weed control at 250 g/ha: 250 g ai/ha, read-out: damage to plant, Pigweed, Redroot (100=total damage to plant; 0=no damage to plant)
In short: as §2

corn (Zea mays) [9] = experiment: Test G Post-Emergence Protocol; conditions: Zea mays, post-emergence, 312 h; for plant injury at 15.625 g/ha: 15.625 g ai/ha, evaluated after 13 days (100=total damage to plant; 0=no damage to plant), read-out: Corn damage rating; for plant injury at 62.5 g/ha: 62.5 g ai/ha, read-out: Corn damage rating (100=total damage to plant; 0=no damage to plant); for plant injury at 62.5 g/ha / plant injury at 250 g/ha: evaluated after 13 days; for plant injury at 250 g/ha: 250 g ai/ha, read-out: damage to plant, Corn (100=total damage to plant; 0=no damage to plant)
In short: as §2

[10] = system: ivy-leaved morning glory (Ipomoea hederacea); experiment: Test G Post-Emergence Protocol; conditions: Ipomoea, post-emergence, 312 h; for pest or weed control at 15.625 g/ha: 15.625 g ai/ha, evaluated after 13 days (100=total damage to plant; 0=no damage to plant), read-out: Morningglory, Ivy-leaved damage rating; for pest or weed control at 62.5 g/ha: 62.5 g ai/ha, read-out: Morningglory, Ivy-leaved damage rating (100=total damage to plant; 0=no damage to plant); for pest or weed control at 62.5 g/ha / pest or weed control at 250 g/ha: evaluated after 13 days; for pest or weed control at 250 g/ha: 250 g ai/ha, read-out: damage to plant, Morningglory, Ivy-leaved (100=total damage to plant; 0=no damage to plant)
In short: as §2

[11] = system: barnyardgrass (Echinochloa crus-galli); experiment: Test G Post-Emergence Protocol; conditions: Echinochloa crus-galli, post-emergence, 312 h; for pest or weed control at 15.625 g/ha: 15.625 g ai/ha, evaluated after 13 days (100=total damage to plant; 0=no damage to plant), read-out: Barnyardgrass damage rating; for pest or weed control at 62.5 g/ha: 62.5 g ai/ha, read-out: Barnyardgrass damage rating (100=total damage to plant; 0=no damage to plant); for pest or weed control at 62.5 g/ha / pest or weed control at 250 g/ha: evaluated after 13 days; for pest or weed control at 250 g/ha: 250 g ai/ha, read-out: damage to plant, Barnyardgrass (100=total damage to plant; 0=no damage to plant)
In short: as §2

[12] = system: giant foxtail (Setaria faberi); experiment: Test G Post-Emergence Protocol; conditions: Setaria faberi, post-emergence, 312 h; for pest or weed control at 15.625 g/ha: 15.625 g ai/ha, evaluated after 13 days (100=total damage to plant; 0=no damage to plant), read-out: Foxtail, Giant damage rating; for pest or weed control at 62.5 g/ha: 62.5 g ai/ha, read-out: Foxtail, Giant damage rating (100=total damage to plant; 0=no damage to plant); for pest or weed control at 62.5 g/ha / pest or weed control at 250 g/ha: evaluated after 13 days; for pest or weed control at 250 g/ha: 250 g ai/ha, read-out: damage to plant, Foxtail, Giant (100=total damage to plant; 0=no damage to plant)
In short: as §2

| SMILES | pest or weed control at 15.625 g/ha [1] [%] | pest or weed control at 62.5 g/ha [1] [%] | pest or weed control at 250 g/ha [1] [%] | pest or weed control at 15.625 g/ha [2] [%] | pest or weed control at 62.5 g/ha [2] [%] | pest or weed control at 250 g/ha [2] [%] | plant injury at 15.625 g/ha (corn (Zea mays) [3]) [%] | plant injury at 62.5 g/ha (corn (Zea mays) [3]) [%] | plant injury at 250 g/ha (corn (Zea mays) [3]) [%] | pest or weed control at 15.625 g/ha [4] [%] | pest or weed control at 62.5 g/ha [4] [%] | pest or weed control at 250 g/ha [4] [%] | pest or weed control at 15.625 g/ha [5] [%] | pest or weed control at 62.5 g/ha [5] [%] | pest or weed control at 250 g/ha [5] [%] | pest or weed control at 15.625 g/ha [6] [%] | pest or weed control at 62.5 g/ha [6] [%] | pest or weed control at 250 g/ha [6] [%] | pest or weed control at 15.625 g/ha [7] [%] | pest or weed control at 62.5 g/ha [7] [%] | further results |
| --- | --- | --- | --- | --- | --- | --- | --- | --- | --- | --- | --- | --- | --- | --- | --- | --- | --- | --- | --- | --- | --- |
| Cc1cccc(NC(=O)[C@H]2C(=O)N(C)C[C@@H]2c2ccc(C(F)(F)F)cc2)c1C#N (racemic) [Compound 1413] | 0 | 0 | 0 | 0 | 20 | 20 | 0 | 0 | 0 | 0 | 0 | 0 | 0 | 20 | 80 | 0 | 60 | 90 | 0 | 0 | pest or weed control at 250 g/ha [7]: 10%; pest or weed control at 15.625 g/ha [8]: 0%; pest or weed control at 62.5 g/ha [8]: 10%; pest or weed control at 250 g/ha [8]: 20%; plant injury at 15.625 g/ha (corn (Zea mays) [9]): 0%; plant injury at 62.5 g/ha (corn (Zea mays) [9]): 0%; plant injury at 250 g/ha (corn (Zea mays) [9]): 0%; pest or weed control at 15.625 g/ha [10]: 0%; pest or weed control at 62.5 g/ha [10]: 0%; pest or weed control at 250 g/ha [10]: 0%; pest or weed control at 15.625 g/ha [11]: 20%; pest or weed control at 62.5 g/ha [11]: 50%; pest or weed control at 250 g/ha [11]: 60%; pest or weed control at 15.625 g/ha [12]: 40%; pest or weed control at 62.5 g/ha [12]: 70%; pest or weed control at 250 g/ha [12]: 70% |
| C#Cc1ccccc1NC(=O)[C@H]1C(=O)N(C)C[C@@H]1c1ccc(C(F)(F)F)cc1 (racemic) [Compound 1422] | 0 | 0 | 0 | 0 | 0 | 0 | 0 | 0 | 0 | 0 | 0 | 0 | 0 | 0 | 0 | 0 | 10 | 50 | 0 | 0 | pest or weed control at 250 g/ha [7]: 0%; pest or weed control at 15.625 g/ha [8]: 0%; pest or weed control at 62.5 g/ha [8]: 0%; pest or weed control at 250 g/ha [8]: 0%; plant injury at 15.625 g/ha (corn (Zea mays) [9]): 10%; plant injury at 62.5 g/ha (corn (Zea mays) [9]): 10%; plant injury at 250 g/ha (corn (Zea mays) [9]): 0%; pest or weed control at 15.625 g/ha [10]: 0%; pest or weed control at 62.5 g/ha [10]: 0%; pest or weed control at 250 g/ha [10]: 0%; pest or weed control at 15.625 g/ha [11]: 0%; pest or weed control at 62.5 g/ha [11]: 0%; pest or weed control at 250 g/ha [11]: 0%; pest or weed control at 15.625 g/ha [12]: 0%; pest or weed control at 62.5 g/ha [12]: 0%; pest or weed control at 250 g/ha [12]: 20% |
